In this test the target is T1, Human TRPC6 (Homo sapiens, UniProt Q9Y210).
T1 construct: expressed in transfected cells
T1 sequence (Q9Y210 1-931): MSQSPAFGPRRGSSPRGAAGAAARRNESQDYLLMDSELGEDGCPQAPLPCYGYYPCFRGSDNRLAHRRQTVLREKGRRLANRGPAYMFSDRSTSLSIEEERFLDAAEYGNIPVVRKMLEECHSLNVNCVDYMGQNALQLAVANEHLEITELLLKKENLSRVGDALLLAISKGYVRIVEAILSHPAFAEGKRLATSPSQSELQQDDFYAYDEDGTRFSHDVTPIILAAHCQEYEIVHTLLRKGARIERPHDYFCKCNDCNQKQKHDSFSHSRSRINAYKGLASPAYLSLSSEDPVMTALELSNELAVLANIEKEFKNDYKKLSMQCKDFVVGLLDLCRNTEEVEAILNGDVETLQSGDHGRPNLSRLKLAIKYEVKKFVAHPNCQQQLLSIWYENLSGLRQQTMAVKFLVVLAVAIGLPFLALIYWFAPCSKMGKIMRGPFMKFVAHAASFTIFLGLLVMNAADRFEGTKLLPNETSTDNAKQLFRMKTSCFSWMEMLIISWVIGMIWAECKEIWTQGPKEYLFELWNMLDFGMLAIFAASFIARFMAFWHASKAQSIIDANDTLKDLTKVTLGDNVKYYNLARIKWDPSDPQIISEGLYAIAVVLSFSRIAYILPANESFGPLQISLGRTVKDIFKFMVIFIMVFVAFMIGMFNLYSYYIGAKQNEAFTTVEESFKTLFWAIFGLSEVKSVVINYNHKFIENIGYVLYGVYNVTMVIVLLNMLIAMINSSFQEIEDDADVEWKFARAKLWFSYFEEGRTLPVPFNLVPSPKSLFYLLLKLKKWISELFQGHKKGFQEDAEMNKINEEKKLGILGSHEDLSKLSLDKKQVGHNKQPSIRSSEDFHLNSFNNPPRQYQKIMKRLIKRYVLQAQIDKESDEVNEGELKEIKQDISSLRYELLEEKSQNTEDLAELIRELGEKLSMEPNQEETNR
The test can be described thus: Evaluation of TRPC6 channel inhibitory activity (1), FLIPR Calcium 5 Assay Kit, OAG stimulation (Compound Nos. 1-1293). The class given is cell-based. To be noted: Human TRPC6 stably-expressing cells, OAG 30 μM, FLIPR Calcium 5 Assay Kit; read-out: Inhibitory activity (pIC50 class) (converted). Summed up:
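Cells stably expressing human TRPC6, plated 24 h before, were loaded 30 min with Calcium 5 dye plus probenecid in HEPES-HBSS. Compound was added 20 min before OAG (30 μM final) and fluorescence tracked on FLIPR. Inhibition normalised to no-compound and no-compound/no-OAG wells; pIC50 from four-parameter fit, reported as +/++/+++ categories.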
On to `Cc1cc(Oc2cc(C#N)ccc2-c2ncc(CCN)cn2)cc(OCC2CCO2)n1` (stereo not drawn) [compound 473, 4-[5-(2-aminoethyl)pyrimidin-2-yl]-3-[2-methyl-6-(oxetan-2-ylmethoxy)pyridin-4-yl]oxybenzonitrile], for which the IC50 is 0.01 to 1 µM. As to `Cn1nc(C2CC2)cc1Oc1cc(C#N)ccc1-c1ccc(C(=O)N2CCNCC2)cn1` [compound 780, 3-(5-cyclopropyl-2-methylpyrazol-3-yl)oxy-4-[5-(piperazine-1-carbonyl)pyridin-2-yl]benzonitrile], the IC50 was greater than 1 µM. For the compound `Cc1nc(C(=O)c2cc(C#N)ccc2-c2ncc(CCN)cn2)cc(N2CCOCC2)n1` [compound 1040, 4-[5-(2-aminoethyl)pyrimidin-2-yl]-3-(2-methyl-6-morpholin-4-ylpyrimidine-4-carbonyl)benzonitrile], the IC50 was 0.01 to 1 µM. Turning to `Cc1nn(C2CCCCC2)cc1Oc1cc(C#N)ccc1-c1ncc(CN)cn1` [compound 865, 4-[5-(aminomethyl)pyrimidin-2-yl]-3-(1-cyclohexyl-3-methylpyrazol-4-yl)oxybenzonitrile], the IC50 is greater than 1 µM.

Turning to `Cc1nn(CC(F)(F)F)cc1Oc1cc(C#N)ccc1-c1ncc(CN)cn1` [compound 835, 4-[5-(aminomethyl)pyrimidin-2-yl]-3-[3-methyl-1-(2,2,2-trifluoroethyl)pyrazol-4-yl]oxybenzonitrile], the IC50 was less than 0.01 µM. As to `N#Cc1ccc(-c2ncc(CCN)cn2)c(Cn2cc(-c3ccccc3)nn2)c1` [compound 1167, 4-[5-(2-aminoethyl)pyrimidin-2-yl]-3-[(4-phenyltriazol-1-yl)methyl]benzonitrile], the IC50 is less than 0.01 µM. Take `CN(CC(F)F)c1cc(Oc2cc(F)ccc2-c2ccc(CCN)cn2)n(C)n1` [compound 988, 5-[2-[5-(2-aminoethyl)pyridin-2-yl]-5-fluorophenoxy]-N-(2,2-difluoroethyl)-N,1-dimethylpyrazole-3-amine]: the IC50 is less than 0.01 µM. On to `N#Cc1ccc(-c2ccc(CCN)cc2)c(Cn2cnc(-c3ccc(C(F)(F)F)cc3)c2)c1` [compound 1124, 4-[4-(2-aminoethyl)phenyl]-3-[[4-[4-(trifluoromethyl)phenyl]imidazol-1-yl]methyl]benzonitrile], for which the IC50 was greater than 1 µM. Consider `CC(C)Cn1cc(Oc2cc(F)ccc2-c2ncc(CCN)cn2)cn1` [compound 982, 2-[2-[4-fluoro-2-[1-(2-methylpropyl)pyrazol-4-yl]oxyphenyl]pyrimidin-5-yl]ethanamine], for which the IC50 was 0.01 to 1 µM. As for `Cc1nc(C(F)(F)F)cn1Cc1cc(C#N)ccc1-c1ncc(CN)cn1` [compound 1174, 4-[5-(aminomethyl)pyrimidin-2-yl]-3-[[2-methyl-4-(trifluoromethyl)imidazol-1-yl]methyl]benzonitrile], the IC50 is 0.01 to 1 µM.

On to `CCN(CC)c1cc(Oc2cc(C#N)ccc2-c2ncc(CN)cn2)nc(C)n1` [compound 791, 4-[5-(aminomethyl)pyrimidin-2-yl]-3-[6-(diethylamino)-2-methylpyrimidin-4-yl]oxybenzonitrile], for which the IC50 was 0.01 to 1 µM. Consider `CN(C)c1cc(Oc2cc(C#N)ccc2-c2ccc(CCN)cn2)n(C)n1` [compound 543, 4-[5-(2-aminoethyl)pyridin-2-yl]-3-[5-(dimethylamino)-2-methylpyrazol-3-yl]oxybenzonitrile], for which the IC50 was less than 0.01 µM. As for `N#Cc1ccc(-c2ncc(CCN)cn2)c(Cn2cnc(-c3ccccc3)c2)c1` [compound 1135, 4-[5-(2-aminoethyl)pyrimidin-2-yl]-3-[(4-phenylimidazol-1-yl)methyl]benzonitrile], the IC50 is less than 0.01 µM.

Regarding `N#Cc1ccc(-c2ncc(CN)cn2)c(Oc2cc(N3CCCC3)ncc2C#N)c1` [compound 740, 4-[2-[5-(aminomethyl)pyrimidin-2-yl]-5-cyanophenoxy]-6-pyrrolidin-1-ylpyridine-3-carbonitrile], the IC50 was greater than 1 µM.

As for `CC(=O)Nc1cc(Oc2cc(C#N)ccc2-c2ccc([C@H](O)CN)cn2)n(C)n1` [compound 548, N-[5-[2-[5-[(1S)-2-amino-1-hydroxyethyl]pyridin-2-yl]-5-cyanophenoxy]-1-methylpyrazol-3-yl]acetamide], the IC50 is greater than 1 µM. As for `Cn1nc(-c2cccc(F)c2)cc1Oc1cc(C#N)ccc1-c1ncc([C@H](O)CN)cn1` (stereo in doubt) [compound 404, 4-[5-(2-amino-1-hydroxyethyl)pyrimidin-2-yl]-3-[5-(3-fluorophenyl)-2-methylpyrazol-3 yl]oxybenzonitrile], the IC50 is less than 0.01 µM. Turning to `Cn1nc(C(C)(C)C)cc1Oc1cc(C#N)ccc1-c1ccc(C(N)CO)cn1` (stereo not drawn) [compound 413, 4-[5-(1-amino-2-hydroxyethyl)pyridin-2-yl]-3-(5-tert-butyl-2-methylpyrazol-3-yl)oxybenzonitrile], the IC50 was less than 0.01 µM.

As to `Cc1c(Oc2cc(F)ccc2-c2ncc(CCN)cn2)cnn1C(C)C` [compound 984, 2-[2-[4-fluoro-2-(5-methyl-1-propan-2-ylpyrazol-4-yl)oxyphenyl]pyrimidin-5-yl]ethanamine], the IC50 is 0.01 to 1 µM.

As to `Cn1nc(-c2ccccc2)cc1Oc1cc(C#N)ccc1-c1ccc([C@@H](O)CN)cn1` [compound 365, 4-[5-[(1R)-2-amino-1-hydroxyethyl]pyridin-2-yl]-3-(2-methyl-5-phenylpyrazol-3-yl)oxybenzonitrile], the IC50 was less than 0.01 µM. On to `Cc1nc(C(=O)c2cc(C#N)ccc2-c2ncc(CN)cn2)cc(N2CCOCC2)n1` [compound 1053, 4-[5-(aminomethyl)pyrimidin-2-yl]-3-(2-methyl-6-morpholin-4-ylpyrimidine-4-carbonyl)benzonitrile], for which the IC50 was greater than 1 µM.

For the compound `Cc1nc(Oc2cc(C#N)ccc2-c2ncc(CCN)cn2)cc(OC2COC2)n1` [compound 886, 4-[5-(2-aminoethyl)pyrimidin-2-yl]-3-[2-methyl-6-(oxetan-3-yloxy)pyrimidin-4-yl]oxybenzonitrile], the IC50 is greater than 1 µM. To `N#Cc1ccc(-c2ccc(CCN)cn2)c(Oc2cnnc(-c3ccccc3)c2)c1` [Compound 103, 4-[5-(2-aminoethyl)pyridin-2-yl]-3-(6-phenylpyridazin-4-yl)oxybenzonitrile] belongs 0.01 to 1 µM. Consider `Cc1nc(Oc2cc(C#N)ccc2-n2cc([C@H](O)CN)cn2)cc(-c2ccccc2C#N)n1` [compound 344, 4-[4-[(1S)-2-amino-1-hydroxyethyl]pyrazol-1-yl]-3-[6-(2-cyanophenyl)-2-methylpyrimidin-4-yl]oxybenzonitrile], for which the IC50 is less than 0.01 µM. For `Cc1nc(Oc2cc(C#N)ccc2-c2ccc(C(O)CN(C)C)cc2)cc(-c2ccccc2)n1` (stereo not drawn) [Compound 96, 4-[4-[2-(dimethylamino)-1-hydroxyethyl]phenyl]-3-(2-methyl-6-phenylpyrimidin-4-yl)oxybenzonitrile] the value was greater than 1 µM. As to `CC(C)(C)n1nc(C2CC2)cc1Oc1cc(C#N)ccc1-c1ccc(C(O)CN)cn1` (stereo not drawn) [compound 368, 4-[5-(2-amino-1-hydroxyethyl)pyridin-2-yl]-3-(2-tert-butyl-5-cyclopropylpyrazol-3-yl)oxybenzonitrile], the IC50 is 0.01 to 1 µM. `Cn1nc(C2CCOCC2)cc1Oc1cc(C#N)ccc1-c1ccc([C@H](O)CN)cn1` [compound 442, 4-[5-[(1S)-2-amino-1-hydroxyethyl]pyridin-2-yl]-3-[2-methyl-5-(oxan-4-yl)pyrazol-3-yl]oxybenzonitrile]: the IC50 is 0.01 to 1 µM. To `Cc1c(C(=O)c2cc(C#N)ccc2-c2ncc(CCN)cn2)cnn1CC1CC1` [compound 1034, 4-[5-(2-aminoethyl)pyrimidin-2-yl]-3-[1-(cyclopropylmethyl)-5-methylpyrazole-4-carbonyl]benzonitrile] belongs 0.01 to 1 µM; to `Cc1nc(Oc2cc(C#N)ccc2-c2ccc(CCN)nc2)cc(-c2ccccc2)n1` [Compound 75, 4-[6-(2-aminoethyl)pyridin-3-yl]-3-(2-methyl-6-phenylpyrimidin-4-yl)oxybenzonitrile], 0.01 to 1 µM; to `Cc1nnc(N2CCOCC2)cc1Oc1cc(C#N)ccc1-c1ncc(CN)cn1` [compound 825, 4-[5-(aminomethyl)pyrimidin-2-yl]-3-(3-methyl-6-morpholin-4-ylpyridazin-4-yl)oxybenzonitrile], 0.01 to 1 µM. As for `Cc1nc(C2CCOCC2)cn1Cc1cc(C#N)ccc1-c1ncc(CN)cn1` [compound 1164, 4-[5-(aminomethyl)pyrimidin-2-yl]-3-[[2-methyl-4-(oxan-4-yl)imidazol-1-yl]methyl]benzonitrile], the IC50 is 0.01 to 1 µM.

Values taken from patent US20230167073A1 (Teijin Pharma Limited, priority 2020, published 2023).
